Experimental data from patent US20170143646A1, “EFFECT OF LIPOPHILIC NUTRIENTS ON DIABETIC EYE DISEASES” (OmniActive Health Technologies Limited, priority 2014, published 2017).

Experiments:
Format in all cases: in vivo, rat
[1] = tested on: STZ-induced diabetic rats; test: SDS-PAGE protein profiling of lens soluble fraction; conditions: vs group-D
Description: (§1) Sodium dodecyl sulfate polyacrylamide gel electrophoresis (SDS-PAGE) and size exclusion chromatography of lens proteins: Subunit profile and cross-linking of soluble proteins were analyzed on 10% polyacrylamide in the presence of sodium dodecyl sulfate (SDS) under reducing conditions. Crystalline distribution in the soluble protein fraction was performed by size exclusion chromatography on a 600×7.5 mm TSK-G4000 SW column (TOSOH Co., Japan) using a HPLC system. The column was equilibrated with 0.1 M sodium phosphate buffer pH 6.7 containing 0.1 M sodium chloride at a flow rate of 1 ml/min.
SDS-PAGE protein profiling: Differences in protein distribution pattern were observed by running the lens protein samples on 12% polyacrylamide gel. 30 μg of protein was loaded per well along with molecular weight marker for SDS-PAGE (Broad range SDS-PAGE marker, BioRad). […] FIG. 3 represents the SDS-PAGE pattern of soluble fraction of lens proteins, as shown in the drawings accompanied with the specification.

[2] = tested on: STZ-induced diabetic rats; test: Size exclusion HPLC of lens soluble protein; conditions: vs Group-D
Description: as §1

[3] = tested on: STZ-induced diabetic rats; test: Slit lamp examination and cataract grading (diabetic cataract); conditions: end of ten weeks; lutein 0.5% or curcumin 0.01% in diet; Group-D stage 4
Description: Male Wistar strain (WNIN) rats (2 months old; Average BW of 213±14 g) obtained from the National Center for Laboratory Animal Sciences, National Institute of Nutrition, Hyderabad, India (NCLAS, NIN). Animals were maintained at NCLAS, NIN and kept for acclimatization in an experimental room for two weeks. Diabetes was induced in overnight fasted animals by a single intraperitoneal injection of STZ (30 mg/kg) in 0.1 M citrate buffer, pH 4.5. Another set of rats, which received only a vehicle, served as the control (Group I; n=12). Fasting blood glucose levels were measured 72 h after STZ injection. Animals having blood glucose levels >150 mg/dL were considered diabetic and those were only divided into five groups (Group II-VI). A group of control rats (n=6) were fed with 0.01% soluble curcumin (Group VII) and soluble 0.5% lutein alone (Group VIII).
Slit lamp examination and Cataract grading: Eyes were examined every week using a slit lamp bio microscope on dilated pupils. Initiation and progression of lens opacity was graded into five categories (0-4).
Cataract development and progression: Onset and progression of cataract is monitored by slit lamp biomicroscope examination as described below: Eyes were examined every week using a slit lamp biomicroscope (Kowa SL15, Portable, Japan) on dilated pupils.

[4] = tested on: STZ-induced diabetic rats; test: Retina histology (H & E), thickness of retinal layers; conditions: curcumin 0.01% diet, Table 6
Description: (§2) Histopathology: The eye balls from selected animals were collected in fixative 4% paraformaldehyde solution in separately labeled vials. The tissues were given some nicks so as to facilitate penetration of fixative into deep tissue. They were kept at room temperature for 24-48 hrs followed by replacing the fixative with 20 mM sodium phosphate buffer. Buffer was scheduled to be replaced with fresh buffer one each week until histopathological processing. Tissues were embedded in paraffin and sections were taken in microtome. Coated slides are used for immunohistochemistry and immunofluorescence, whereas uncoated slides for hemotoxylin and eosin (H & E) staining.
A representative table of retinal layers thickness (in μm) measured by the use of Lieca application suit, Leica, Switzerland. C, Non diabetic control; D, Diabetic control; D+RL, Diabetes+Regular Lutein; D+SL, Diabetes+Soluble Lutein; GCL, ganglion cell layer; IPL, inner plexiform layer; INL, inner nuclear layer; OPL, outer plexiform layer; ONL, outer nuclear layer; PRL, photo receptor layer.

Rhodopsin (Rho) [5] = test: Rhodopsin protein in retina by immunofluorescence; conditions: diabetic retina, curcumin 0.01% diet
Description: as §2

[6] = tested on: STZ-induced diabetic rats; test: Electroretinogram, oscillatory potentials (OPs); conditions: curcumin 0.01% diet; D 334.2
Description: Experimental design: Male Wistar-NIN rats with an average body weight of 120 gms are obtained from the National center for laboratory animal sciences, National institute of Nutrition, Hyderabad (NCLAS, NIN). Animals were maintained at NCLAS, MN and kept for acclimatization in an experimental room for two weeks. Diabetes was induced in overnight fasted animals by a single intraperitoneal injection of STZ (30 mg/kg) in 0.1 M citrate buffer, pH 4.5. Another set of rats, which received only a vehicle, served as the control (Group-C; n=6). Fasting blood glucose levels were measured 72 h after STZ injection. Animals having blood glucose levels >150 mg/dL were considered diabetic and all the animals are divided into four groups as shown in the Table 3 below.
All the animals were housed in individual cages maintained on their respective diets for 12. weeks and drinking water was provided ad libitum throughout the study period. Daily food intake and weekly body weights, fasting glucose levels were noted. […]
Electroretinogram (ERG) Analysis: Diabetic retinoapthy is characterized by disturbances in retinal function. The retinal function can be assessed by electroretinogram. […]
Animals were dark-adapted for overnight and prepared for the ERG procedure under dim red illumination. […] The oscillatory potentials were extracted from the wave form and the sum of all OPs was calculated.

Rhodopsin (Rho) [7] = test: Rhodopsin mRNA in retina by real-time PCR; conditions: diabetic retina, curcumin 0.01% diet
Description: (§3) Quantitative real-time PCR: Total RNA was extracted from the retina of rats using Tri reagent. Isolated RNA was further purified by RNeasy Mini Kit (Qiagen) and quantified by measuring the absorbance at 260 and 280 nm on ND1000 spectrophotometer (NanoDrop technologies, Delaware, USA). The quality of RNA preparation was assessed by electrophoresis on a denaturing agarose gel. Two μg of total RNA was reverse transcribed using High Capacity cDNA Reverse Transcription kit. Reverse transcription reaction was carried out with a thermocycler (ABI 9700). Real-time polymerase chain reaction (PCR) (ABI-7500) was performed in triplicates with 25 ng cDNA templates using SYBR green master mix with gene specific primers. Normalization and validation of data were carried using (3-actin as an internal control and data were compared between samples according to comparative threshold cycle (2^-ΔΔct) method.

[8] = tested on: Platelet-derived growth factor (PDGF); test: PDGF expression in retina by immunohistochemistry; conditions: diabetic retina, curcumin 0.01% diet
Description: as §2

[9] = tested on: STZ-induced diabetic rats; test: Total and soluble protein in lens homogenate (Lowry)
Description: Blood/Lens collection and processing: Blood was drawn once in every week from retro orbital plexus for glucose and insulin estimation. At the end of 12 weeks, animals were sacrificed by CO2 asphyxiation and lenses were dissected by posterior approach and stored at −70° C. until further analysis. A 10% homogenate was prepared from 3-5 pooled lenses in 50 mM phosphate buffer, pH 7.4. All the biochemical parameters were analyzed in the soluble fraction of the lens homogenate (15,000x g at 4° C.) except for lens malondialdehyde (MDA), which was determined in the total homogenate.
Biochemical estimations: Lens MDA, as thiobarbituric acid reacting substances (TBARS) protein carbonyl content were determined according to the methods for estimating the protein carbonyl content described by Suryanarayana P et al. in the research paper “Curcumin and turmeric delay streptozotocin-induced diabetic cataract in rats,” Invest Ophthalmol Vis Sci 2005; 46(6):2092-9. Total, soluble and insoluble protein was assayed by Lowry method using bovine serum albumin (BSA) as standard.
Individual lenses were weighed and pooled into 4 lenses for a pool, and such 4-5 pools were formed per group. A 10% homogenate was prepared in 50 mM sodium phosphate buffer pH 7.4, with tissue homogenizer at intermittent time gaps to avoid excess heat generation. Separate aliquots of total homogenate (TH) were made 250 μl for TBARS assay, 150 μl for sorbitol estimation, and 20 μl for protein estimation. Remaining homogenate was centrifuged at 10,000 RPM for 30 min at 4° C. Supernatant was separated into labelled vials, as total soluble protein (TSP).
Determining soluble percentage of protein in lens homogenate: Protein estimation was done in lens homogenate and soluble fraction by Lowry's method. Amount of protein present per gram weight of lens was calculated. Percentage of soluble protein was calculated by multiplying the fraction of soluble protein by 100.

[10] = tested on: Nerve Growth Factor (NGF); test: NGF protein in retina by immunofluorescence; conditions: diabetic retina, curcumin 0.01% diet
Description: as §2

[11] = tested on: Nerve Growth Factor (NGF); test: NGF gene expression in retina by real-time PCR; conditions: diabetic retina, curcumin 0.01% diet
Description: as §3

SMILES: COc1cc(/C=C/C(=O)CC(=O)/C=C/c2ccc(O)c(OC)c2)ccc1O [RC, curcumin]
- band of aggregated proteins at ~50 kDa [1]: reduced band intensity
- size exclusion profile of total soluble protein (TSP) [2]: normalized the profile of TSP
- severity of cataracts (stage 0-4) [3]: 3.0 stage
- GCL + IPL thickness [4]: 35.692 μ
- INL thickness [4]: 13.648 μ
- ONL thickness [4]: 30.108 μ
- OPL thickness [4]: 5.685 μ
- PRL thickness [4]: 19.520 μ
- Total retinal thickness [4]: 106.014 μ
- Rho protein expression (Rhodopsin (Rho) [5]): prevented loss of Rho protein expression
- sum of OPs (amplitude) [6]: 445.7 μV
- mRNA levels of Rho gene (Rhodopsin (Rho) [7]): prevented its decline
- PDGF expression [8]: inhibited diabetes induced PDGF over expression
- loss of soluble protein compared to group-D ([9]; lens): significantly prevented loss of soluble protein
- Total protein ([9]; lens homogenate, mean ± SEM, n = 6, lutein 0.5% or curcumin 0.01% diet, 12 weeks): 368.50 ± 19.2 mg/gm lens
- Soluble protein ([9]; lens soluble fraction, mean ± SEM, n = 6): 202.63 ± 21.6 mg/gm lens
- NGF protein [10]: prevented loss of NGF protein
- NGF gene expression [11]: equal beneficiary effect in preventing down regulation of NGF gene
